Reference: US20040072862A1, “Compositions for treating ischemia-related neuronal damage” (priority 1999, published 2004)

How the values were obtained:
[1] = system: Oxygen/Glucose Deprived RGCs; assay: Protection of oxygen/glucose deprived (OGD) retinal ganglion cells, EC50; assay type: cell-based, Sprague-Dawley rat; conditions: Rattus norvegicus; compound added from 30 min prior to OGD, during OGD, and 24 and 48 h after OGD
Description: (§1) Untreated OGD cells were also included as controls.
(§2) The tissue was then disrupted sequentially with a 1 ml pipette, in a solution containing ovomucoid (Boehringer-Mannheim), DNase (Sigma), and bovine serum albumin (BSA; Sigma) to yield a single cell suspension. The cells were then washed in a suspension of ovomucoid/BSA.

[2] = system: OGD cells (retinal ganglion cells); assay: Increase in survival of OGD cells, dose-dependent data; assay type: cell-based, Sprague-Dawley rat
Description: as §1, §2

Work on `Oc1cccc2nc(Cc3nc4ccccc4[nH]3)[nH]c12` [SNX-926, 2-(benzimidazol-2-ylmethyl)benzimidazol-7-ol] yielded an EC50 [1] of 40 nM, an activation at 0.001 µM ([2]; Rattus norvegicus, 0.001 μM, read-out: Percent Increase in Survival over OGD Control Cells) of under 50% and an activation at 0.01 µM ([2]; Rattus norvegicus, 0.01 μM, read-out: Percent Increase in Survival over OGD Control Cells) of 50 to 100%. The activation at 0.1 µM ([2]; Rattus norvegicus, 0.1 μM, read-out: Percent Increase in Survival over OGD Control Cells) was over 100%, the activation at 1 µM ([2]; Rattus norvegicus, 1 μM, read-out: Percent Increase in Survival over OGD Control Cells) was over 100% and the activation at 10 µM ([2]; Rattus norvegicus, 10 μM, read-out: Percent Increase in Survival over OGD Control Cells) was 50 to 100%. The “TI (therapeutic index)” value ([2]; rat, retinal ganglion cells) was over 250.
